Data: patent publication US4201774A, “Novel aminoglycoside derivatives” (Shionogi & Co., Ltd., priority 1977, dated 1980)
Values after ≈ are worked out from the molar mass of the structure shown.

Experiments:
[1] = test system: Staphylococus epidermidis TB-302; test: MIC, Staphylococus epidermidis TB-302; format: cell-based; details: read-out: minimum inhibitory concentration (MIC)
Seratia marcescens MA-81 = test: MIC, Seratia marcescens MA-81*; format: cell-based; details: Seratia marcescens MA-81, tobramycin resistant strain; read-out: minimum inhibitory concentration (MIC)
Proteus inconstans In-43 = test: MIC, Proteus inconstans In-43*; format: cell-based; details: Providencia alcalifaciens, IN43; Proteus inconstans In-43, tobramycin resistant strain; read-out: minimum inhibitory concentration (MIC)
Escherichia coli EC-147 = test: MIC, Escherichia coli EC-147*; details: EC147, read-out: minimum inhibitory concentration (MIC)
Escherichia coli EC-148 = test: MIC, Escherichia coli EC-148*; details: EC148, read-out: minimum inhibitory concentration (MIC)
[2] = test system: Staphylococcus aureus S-25; test: MIC, Staphylococcus aureus S-25*; details: S25, read-out: minimum inhibitory concentration (MIC)
[3] = test system: Citrobactor freundii Ct-52; test: MIC, Citrobactor freundii Ct-52*; details: read-out: minimum inhibitory concentration (MIC)
[4] = test system: Enterobacter cloacae Cl-126; test: MIC, Enterobacter cloacae Cl-126*; details: CL126, read-out: minimum inhibitory concentration (MIC)
[5] = test system: Pseudomonas aeruginosa PP-6; test: MIC, Pseudomonas aeruginosa PP-6*; details: PP6, read-out: minimum inhibitory concentration (MIC)
[6] = test system: Klebsiella pneumoniae Kl-187; test: MIC, Klebsiella pneumoniae Kl-187*; details: KL187, read-out: minimum inhibitory concentration (MIC)
[7] = test system: Escherichia coli W-677/JR 214; test: MIC, Escherichia coli W-677/JR 214*; details: W677/JR214, read-out: minimum inhibitory concentration (MIC)
[8] = test system: Escherichia coli W-677/JR 225; test: MIC, Escherichia coli W-677/JR 225*; details: W677/JR225, read-out: minimum inhibitory concentration (MIC)
[9] = test system: Escherichia coli W-677/JR-762; test: MIC, Escherichia coli W-677/JR-762*; details: W677/JR762, read-out: minimum inhibitory concentration (MIC)

NC[C@H]1O[C@H](O[C@H]2[C@H](O)[C@@H](O[C@H]3O[C@H](CO)[C@@H](O)[C@H](N)[C@H]3O)[C@H](NCC3(O)CNC3)C[C@@H]2N)[C@H](N)C[C@@H]1O [Test compound (1), 1-N-[(3-hydroxyazetidin-3-yl)methyl]tobramycin] showed an MIC [1] of 3.13 mg/L (≈ 5.66 µM), an MIC (Seratia marcescens MA-81) of 12.5 mg/L (≈ 22.6 µM) and an MIC (Proteus inconstans In-43) of 6.25 mg/L (≈ 11.3 µM). It also gave an MIC (Escherichia coli EC-147) of 3.13 mg/L (≈ 5.66 µM), an MIC (Escherichia coli EC-148) of 3.13 mg/L (≈ 5.66 µM) and an MIC [2] of 50 mg/L (≈ 90.5 µM). The MIC [3] was 0.78 mg/L (≈ 1.41 µM), the MIC [4] was 0.78 mg/L (≈ 1.41 µM) and the MIC [5] was 0.78 mg/L (≈ 1.41 µM). For the same compound, the MIC [6] was 0.78 mg/L (≈ 1.41 µM), the MIC [7] was 1.56 mg/L (≈ 2.82 µM) and the MIC [8] was 1.56 mg/L (≈ 2.82 µM). It also gave an MIC [9] of 3.13 mg/L (≈ 5.66 µM).
Compound NC[C@H]1O[C@H](O[C@H]2[C@H](O)[C@@H](O[C@H]3O[C@H](CO)[C@@H](O)[C@H](N)[C@H]3O)[C@H](NCC3(O)CCNC3)C[C@@H]2N)[C@H](N)C[C@@H]1O (some centres unmarked) [Test compound (2), 1-N-[(3-hydroxypyrrolidin-3-yl)methyl]tobramycin] has an MIC [1] of 1.56 mg/L (≈ 2.75 µM), an MIC (Seratia marcescens MA-81) of 12.5 mg/L (≈ 22.1 µM) and an MIC (Proteus inconstans In-43) of 12.5 mg/L (≈ 22.1 µM). For the same compound, the MIC (Escherichia coli EC-147) was 3.13 mg/L (≈ 5.52 µM), the MIC (Escherichia coli EC-148) was 3.13 mg/L (≈ 5.52 µM) and the MIC [2] was 25 mg/L (≈ 44.1 µM). The MIC [3] was 0.78 mg/L (≈ 1.38 µM), the MIC [4] was 0.78 mg/L (≈ 1.38 µM) and the MIC [5] was 0.78 mg/L (≈ 1.38 µM). The MIC [6] was 0.39 mg/L (≈ 0.688 µM), the MIC [7] was 1.56 mg/L (≈ 2.75 µM) and the MIC [8] was 0.78 mg/L (≈ 1.38 µM). For the same compound, the MIC [9] was 3.13 mg/L (≈ 5.52 µM).
For NC[C@H]1O[C@H](O[C@H]2[C@H](O)[C@@H](O[C@H]3O[C@H](CO)[C@@H](O)[C@H](N)[C@H]3O)[C@H](NCC3(O)CNC3)C[C@@H]2N)[C@H](O)[C@@H](O)[C@@H]1O [Test compound (3), 1-N-[(3-hydroxyazetidin-3-yl)methyl]kanamycin A], the MIC [1] was 3.13 mg/L (≈ 5.49 µM), the MIC (Seratia marcescens MA-81) was 12.5 mg/L (≈ 21.9 µM) and the MIC (Proteus inconstans In-43) was 3.13 mg/L (≈ 5.49 µM). For the same compound, the MIC (Escherichia coli EC-147) was 6.25 mg/L (≈ 11 µM), the MIC (Escherichia coli EC-148) was 12.5 mg/L (≈ 21.9 µM) and the MIC [2] was 25 mg/L (≈ 43.9 µM). The MIC [3] was 3.13 mg/L (≈ 5.49 µM), the MIC [4] was 1.56 mg/L (≈ 2.74 µM) and the MIC [5] was 3.13 mg/L (≈ 5.49 µM). It also gave an MIC [6] of 1.56 mg/L (≈ 2.74 µM), an MIC [7] of 6.25 mg/L (≈ 11 µM) and an MIC [8] of 3.13 mg/L (≈ 5.49 µM). For the same compound, the MIC [9] was 12.5 mg/L (≈ 21.9 µM).
Compound NC[C@H]1O[C@H](O[C@H]2[C@H](O)[C@@H](O[C@H]3O[C@H](CO)[C@@H](O)[C@H](N)[C@H]3O)[C@H](NCC3(O)CCNC3)C[C@@H]2N)[C@H](O)[C@@H](O)[C@@H]1O (some centres unmarked) [Test compound (4), 1-N-[(3-hydroxypyrrolidin-3-yl)methyl]kanamycin A] has an MIC [1] of 1.56 mg/L (≈ 2.67 µM), an MIC (Seratia marcescens MA-81) of 12.5 mg/L (≈ 21.4 µM) and an MIC (Proteus inconstans In-43) of 3.13 mg/L (≈ 5.36 µM). It also gave an MIC (Escherichia coli EC-147) of 6.25 mg/L (≈ 10.7 µM), an MIC (Escherichia coli EC-148) of 6.25 mg/L (≈ 10.7 µM) and an MIC [2] of 12.5 mg/L (≈ 21.4 µM). The MIC [3] was 1.56 mg/L (≈ 2.67 µM), the MIC [4] was 1.56 mg/L (≈ 2.67 µM) and the MIC [5] was 3.13 mg/L (≈ 5.36 µM). For the same compound, the MIC [6] was 1.56 mg/L (≈ 2.67 µM), the MIC [7] was 3.13 mg/L (≈ 5.36 µM) and the MIC [8] was 3.13 mg/L (≈ 5.36 µM). It also gave an MIC [9] of 12.5 mg/L (≈ 21.4 µM).
With NC[C@H]1O[C@H](O[C@H]2[C@H](O)[C@@H](O[C@H]3O[C@H](CO)[C@@H](O)[C@H](N)[C@H]3O)[C@H](N)C[C@@H]2N)[C@H](N)C[C@@H]1O [Test compound (5), tobramycin, reference compound] the MIC [1] was 3.13 mg/L (≈ 6.69 µM), the MIC (Seratia marcescens MA-81) was > 100 mg/L and the MIC (Proteus inconstans In-43) was 6.25 mg/L (≈ 13.4 µM). The MIC (Escherichia coli EC-147) was 50 mg/L (≈ 107 µM), the MIC (Escherichia coli EC-148) was 100 mg/L (≈ 214 µM) and the MIC [2] was 100 mg/L (≈ 214 µM). The MIC [3] was 25 mg/L (≈ 53.5 µM), the MIC [4] was 25 mg/L (≈ 53.5 µM) and the MIC [5] was 50 mg/L (≈ 107 µM). For the same compound, the MIC [6] was 25 mg/L (≈ 53.5 µM), the MIC [7] was 100 mg/L (≈ 214 µM) and the MIC [8] was 50 mg/L (≈ 107 µM). The MIC [9] was > 100 mg/L.
